Data published in patent US10246429B2, “Vinyl fluoride cyclopropyl fused thiazin-2-amine compounds as beta-secretase inhibitors and methods of use” (AMGEN INC., priority 2015, dated 2019).

Key:
[1] = biological target: T1, BACE1 (Homo sapiens (Human), UniProt P56817); experiment: In vitro enzymatic BACE1 FRET assay; assay type: biochemical; conditions: read-out: IC50 IP (μM) BACE1 Enzyme
Target sequence in this assay (P56817 46-501): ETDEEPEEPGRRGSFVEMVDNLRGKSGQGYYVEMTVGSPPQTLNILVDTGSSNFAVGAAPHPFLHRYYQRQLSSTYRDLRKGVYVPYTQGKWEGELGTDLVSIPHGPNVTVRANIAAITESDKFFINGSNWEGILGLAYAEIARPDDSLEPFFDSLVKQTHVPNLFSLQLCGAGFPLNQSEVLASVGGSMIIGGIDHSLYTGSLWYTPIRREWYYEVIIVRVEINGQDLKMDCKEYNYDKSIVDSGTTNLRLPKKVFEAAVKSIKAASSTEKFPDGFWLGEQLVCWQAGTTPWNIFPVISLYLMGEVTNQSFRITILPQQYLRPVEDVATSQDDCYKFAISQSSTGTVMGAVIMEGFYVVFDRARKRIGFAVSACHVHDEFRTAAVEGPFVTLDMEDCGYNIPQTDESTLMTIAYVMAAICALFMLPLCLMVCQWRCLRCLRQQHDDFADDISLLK
Text: (§1) In Vitro Enzymatic BACE1 and BACE2 FRET (Fluorescence Resonance Energy Transfer) Assays (Enzyme Assay Data in Table 1)

[2] = biological target: T1, BACE1; experiment: BACE1 cell assay; assay type: cell-based; conditions: read-out: IC50 IP (μM) BACE1 Cell
Target sequence in this assay (P56817 46-501, species assumed): as the sequence (P56817 46-501) above

[3] = biological target: BACE2 (Homo sapiens (Human), UniProt Q9Y5Z0); experiment: In vitro enzymatic BACE2 FRET assay; assay type: biochemical; conditions: read-out: IC50 IP (μM) BACE2 Enzyme
Text: as §1

[4] = biological target: Cathepsin D (CatD) (Homo sapiens (Human), UniProt P07339); experiment: CatD assay; assay type: biochemical; conditions: read-out: IC50 IP (μM) CatD
Sequence of Cathepsin D (CatD) (P07339 65-412, species assumed): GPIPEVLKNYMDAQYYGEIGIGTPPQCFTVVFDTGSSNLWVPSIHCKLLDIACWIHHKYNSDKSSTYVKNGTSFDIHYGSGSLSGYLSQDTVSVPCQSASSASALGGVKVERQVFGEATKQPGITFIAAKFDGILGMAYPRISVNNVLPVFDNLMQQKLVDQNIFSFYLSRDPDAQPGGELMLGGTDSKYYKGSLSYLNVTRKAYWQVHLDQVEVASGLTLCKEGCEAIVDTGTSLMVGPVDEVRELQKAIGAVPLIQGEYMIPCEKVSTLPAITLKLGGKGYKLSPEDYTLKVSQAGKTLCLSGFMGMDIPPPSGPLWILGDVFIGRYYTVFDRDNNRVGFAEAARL

Sequence of BACE2 (Q9Y5Z0 63-518): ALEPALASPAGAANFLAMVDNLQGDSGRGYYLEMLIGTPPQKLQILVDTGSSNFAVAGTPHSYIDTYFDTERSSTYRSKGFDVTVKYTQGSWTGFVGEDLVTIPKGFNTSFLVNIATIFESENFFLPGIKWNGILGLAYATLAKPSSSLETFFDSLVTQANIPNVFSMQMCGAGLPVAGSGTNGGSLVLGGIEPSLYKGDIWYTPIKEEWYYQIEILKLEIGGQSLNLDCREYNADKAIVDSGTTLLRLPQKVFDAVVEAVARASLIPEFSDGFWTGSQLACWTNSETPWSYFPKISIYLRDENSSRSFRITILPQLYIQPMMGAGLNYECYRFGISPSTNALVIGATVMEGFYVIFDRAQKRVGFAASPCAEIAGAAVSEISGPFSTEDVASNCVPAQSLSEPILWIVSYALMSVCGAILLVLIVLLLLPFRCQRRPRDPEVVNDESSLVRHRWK

SMILES | IC50 [1] [µM] | IC50 [2] [µM] | IC50 [3] [µM] | IC50 [4] [µM]
CNC(=O)[C@]12C[C@H]1[C@@](C)(c1cc(/C=C(\F)c3cnc(C#CC4CC4)cn3)ccc1F)N=C(N)S2 [Example 165, (1S,5S,6S)-3-amino-5-(5-((Z)-2-(5-(cyclopropylethynyl)pyrazin-2-yl)-2-fluorovinyl)-2-fluorophenyl)-N,5-dimethyl-2-thia-4-azabicyclo[4.1.0]hept-3-ene-1-carboxamide] | 0.00707 | 0.121 | 0.307 | 538
CNC(=O)[C@]12C[C@H]1[C@@](C)(c1cc(/C=C(\F)c3cnc(C#C[Si](C)(C)C)cn3)ccc1F)N=C(N)S2 [Example 166, (1S,5S,6S)-3-amino-5-(2-fluoro-5-((Z)-2-fluoro-2-(5-((trimethylsilyl)ethynyl)pyrazin-2-yl)vinyl)phenyl)-N,5-dimethyl-2-thia-4-azabicyclo[4.1.0]hept-3-ene-1-carboxamide] | 0.0171 | 0.185 | 1.72 | 146
CN(C)C(=O)[C@]12C[C@H]1[C@@](C)(c1cc(/C=C(\F)c3ccc(C#N)cc3)ccc1F)N=C(N)S2 [Example 168, (1S,5S,6S)-3-amino-5-(5-((Z)-2-(4-cyanophenyl)-2-fluorovinyl)-2-fluorophenyl)-N,N,5-trimethyl-2-thia-4-azabicyclo[4.1.0]hept-3-ene-1-carboxamide] | 0.00496 | 0.0368 | 0.104 | 442
CN(C)C(=O)[C@]12C[C@H]1[C@@](C)(c1cc(/C=C(\F)c3cnc(C#N)nc3)ccc1F)N=C(N)S2 [Example 173, (1S,5S,6S)-3-amino-5-(5-((Z)-2-(2-cyanopyrimidin-5-yl)-2-fluorovinyl)-2-fluorophenyl)-N,N,5-trimethyl-2-thia-4-azabicyclo[4.1.0]hept-3-ene-1-carboxamide] | 0.15 | 0.924 | 0.3 | 225
COC(=O)[C@]12C[C@H]1[C@@](C)(c1cc(/C=C(\F)c3ccc(Cl)cn3)cnc1F)N=C(N)S2 [Example 176, (1S,5S,6S)-methyl 3-amino-5-(5-((Z)-2-(5-chloropyridin-2-yl)-2-fluorovinyl)-2-fluoropyridin-3-yl)-5-methyl-2-thia-4-azabicyclo[4.1.0]hept-3-ene-1-carboxylate] | 0.142 | 1.76 | 0.214 | > 400
COC(=O)[C@]12C[C@H]1[C@@](C)(c1cc(/C=C(/F)c3ccc(Cl)cn3)cnc1F)N=C(N)S2 [Example 177, (1S,5S,6S)-methyl 3-amino-5-(5-((E)-2-(5-chloropyridin-2-yl)-2-fluorovinyl)-2-fluoropyridin-3-yl)-5-methyl-2-thia-4-azabicyclo[4.1.0]hept-3-ene-1-carboxylate] | 0.291 | 5.44 | 2.9 | 527
C[C@]1(c2cc(/C=C(\F)c3ccc(C#N)cn3)cnc2F)N=C(N)S[C@@]2(C(=O)N3CC[C@@H](F)C3)C[C@H]21 [Example 181, 6-((Z)-2-(5-((1S,5S,6S)-3-amino-1-((R)-3-fluoropyrrolidine-1-carbonyl)-5-methyl-2-thia-4-azabicyclo[4.1.0]hept-3-en-5-yl)-6-fluoropyridin-3-yl)-1-fluorovinyl)nicotinonitrile] | 0.0021 | 0.0073 | 0.033 | 653
C[C@]1(c2cc(/C=C(\F)c3ccc(C#N)cn3)cnc2F)N=C(N)S[C@@]2(C(=O)N3CC[C@H](F)C3)C[C@H]21 [Example 182, 6-((Z)-2-(5-((1S,5S,6S)-3-amino-1-((S)-3-fluoropyrrolidine-1-carbonyl)-5-methyl-2-thia-4-azabicyclo[4.1.0]hept-3-en-5-yl)-6-fluoropyridin-3-yl)-1-fluorovinyl)nicotinonitrile] | 0.0024 | 0.007 | 0.045 | 776
